Experimental data from PMC12693701, “Glucosinolate-Derived Metabolites from Barbarea vulgaris (Brassicaceae): Evaluation of Antimicrobial, Antioxidant, and Anti-Inflammatory Potentials” (Molecules, 2025).
Converted amounts (≈) assume the structure as drawn.

System: B. subtilis ATCC 6633
Experiment: Microdilution MIC/MMC with resazurin
Assay type: cell-based, Bacillus subtilis
Settings: B. subtilis ATCC 6633; compounds 1–8
Protocol: (§1) The antimicrobial activity was evaluated against 15 microorganisms. This included 11 bacterial strains: four standard strains (Staphylococcus aureus ATCC 25923, Bacillus subtilis ATCC 6633, Bacillus pumilus NCTC 8241, and Escherichia coli ATCC 25922) and six clinical or environmental isolates (Staphylococcus aureus, Escherichia coli, Bacillus cereus, Proteus mirabilis, Salmonella enterica, and Klebsiella pneumoniae). One probiotic strain, Bifidobacterium animalis subsp. lactis was tested. In addition, four fungal strains, Candida albicans ATCC 10231, Trichoderma viride ATCC 13233, Aspergillus flavus ATCC 9170, and Fusarium solani ATCC 11712 were tested. The bacterial strains were kept in glycerol stock at −80 °C and the fungal strains in paraffin oil stock at 4 °C.
(§2) Bacterial and yeast suspensions were prepared using the direct colony method, as previously described by Andrews. The turbidity of the initial suspensions was adjusted to match the 0.5 McFarland standard using a densitometer (Biosan, Riga, Latvia), corresponding to approximately 10^8 colony-forming units (CFU)/mL for bacterial cells and 10^6 CFU/mL for yeast cells. Subsequently, 1:100 dilutions of the initial suspensions were prepared in sterile 0.85% saline. Fungal spore suspensions were obtained by gently harvesting spores from agar slopes containing mature mycelial growth. The collected spore suspensions were then diluted 1:1000 in sterile 0.85% saline prior to use.
(§3) Antimicrobial activity was evaluated by determining the minimum inhibitory concentration (MIC) and minimum microbicidal concentration (MMC) using the microdilution plate method with resazurin as an indicator [28]. In the 96-well plates, 100 μL of Mueller–Hinton broth (Torlak, Belgrade, Serbia) for bacterial testing and Sabouraud broth (Torlak, Belgrade, Serbia) for fungal testing were dispensed into each well. The compounds under investigation were initially dissolved in a 10% dimethyl sulfoxide (DMSO) solution, followed by dilution in sterile distilled water, resulting in a working compound solution containing 1% DMSO. A 100 μL aliquot of the stock solution of the tested compound was added to the first row, and twofold serial dilutions were then carried out using a multichannel pipette. The resulting concentration range was from 5 to 0.039 mg/mL. The inoculated microtiter plates were incubated at 37 °C for 24 h for bacteria, at 28 °C for 48 h for yeasts, and at 28 °C for 72 h for molds.
(§4) Each test also included growth control and sterility control. All tests were conducted in duplicate. MIC was defined as the lowest concentration of tested compounds that prevented resazurin color change from blue to pink. For molds, MIC values of the tested compound were determined as the lowest concentration that inhibited visible mycelia growth. MMC was determined by inoculation of the nutrient agar medium by plating […] of samples from wells, where no indicator color change was recorded. At the end of the incubation period, the lowest concentration with no growth (no colony) was defined as MMC.
(§5) Doxycycline, ampicillin and amphotericin B (- Sigma-Aldrich, St. Louis, MO, USA) and ketoconazole (Hemofarm A.D., Vršac, Serbia) were dissolved in a nutrient liquid medium. Doxycycline is a broad-spectrum antibiotic effective against both aerobic and anaerobic Gram-positive and Gram-negative bacteria. Ampicillin, a beta-lactam antibiotic, primarily targets Gram-positive bacteria but also some Gram-negative strains. Amphotericin B is an antifungal drug often used for serious systemic fungal infections and is one of the effective treatments for fungal infections caused by Aspergillus sp. Ketoconazole is an antifungal agent used to inhibit the growth of Candida species.
Compound `CSC(=S)NCCc1ccc(O)cc1` [Compound 2, methyl-4-hydroxyphenylethyl dithiocarbamate] has an MMC of 1.25 mg/mL.

Same assay, conditions: Bacillus subtilis, ATCC6633; B. subtilis ATCC 6633; compounds 1–8; read-out: MIC
Work on `CSC(=S)NCCc1ccc(O)cc1` [Compound 2, methyl-4-hydroxyphenylethyl dithiocarbamate] yielded an MIC of 78 µg/mL (≈ 343 µM).

System: B. cereus
Experiment: Microdilution MIC/MMC with resazurin
Assay type: cell-based, Bacillus cereus
Settings: B. cereus; compounds 1–8
Protocol: as §1, §2, §3, §4, §5
`CSC(=S)NCCc1ccc(O)cc1` [Compound 2, methyl-4-hydroxyphenylethyl dithiocarbamate] showed an MMC of 0.625 mg/mL.

Same assay, conditions: Bacillus cereus; B. cereus; compounds 1–8; read-out: MIC
In the case of `CSC(=S)NCCc1ccc(O)cc1` [Compound 2, methyl-4-hydroxyphenylethyl dithiocarbamate], the MIC is reported as 156 µg/mL (≈ 686 µM).

System: B. pumilus NCTC 8241
Experiment: Microdilution MIC/MMC with resazurin
Assay type: cell-based, Bacillus pumilus
Settings: B. pumilus NCTC 8241; compounds 1–8
Protocol: as §1, §2, §3, §4, §5
`CSC(=S)NCCc1ccc(O)cc1` [Compound 2, methyl-4-hydroxyphenylethyl dithiocarbamate] gave an MMC of 0.156 mg/mL.

Same assay, conditions: Bacillus pumilus, NCTC8241; B. pumilus NCTC 8241; compounds 1–8; read-out: MIC
With `CSC(=S)NCCc1ccc(O)cc1` [Compound 2, methyl-4-hydroxyphenylethyl dithiocarbamate] the MIC was 156 µg/mL (≈ 686 µM).

System: S. aureus ATCC 25923
Experiment: Microdilution MIC/MMC with resazurin
Assay type: cell-based, Staphylococcus aureus
Settings: S. aureus ATCC 25923; compounds 1–8
Protocol: as §1, §2, §3, §4, §5
For `CSC(=S)NCCc1ccc(O)cc1` [Compound 2, methyl-4-hydroxyphenylethyl dithiocarbamate], the MMC was 0.156 mg/mL.

Same assay, conditions: Staphylococcus aureus, ATCC25923; S. aureus ATCC 25923; compounds 1–8; read-out: MIC
For `CSC(=S)NCCc1ccc(O)cc1` [Compound 2, methyl-4-hydroxyphenylethyl dithiocarbamate], the MIC was 156 µg/mL (≈ 686 µM).

System: S. aureus
Experiment: Microdilution MIC/MMC with resazurin
Assay type: cell-based, Staphylococcus aureus
Settings: S. aureus isolate; compounds 1–8
Protocol: as §1, §2, §3, §4, §5
For `CSC(=S)NCCc1ccc(O)cc1` [Compound 2, methyl-4-hydroxyphenylethyl dithiocarbamate], the MMC was 0.312 mg/mL.

Same assay, conditions: Staphylococcus aureus; S. aureus isolate; compounds 1–8; read-out: MIC
Compound `CSC(=S)NCCc1ccc(O)cc1` [Compound 2, methyl-4-hydroxyphenylethyl dithiocarbamate] has an MIC of 312 µg/mL (≈ 1370 µM).

System: E. coli ATCC 25922
Experiment: Microdilution MIC/MMC with resazurin
Assay type: cell-based, Escherichia coli
Settings: E. coli ATCC 25922; compounds 1–8
Protocol: as §1, §2, §3, §4, §5
Work on `CSC(=S)NCCc1ccc(O)cc1` [Compound 2, methyl-4-hydroxyphenylethyl dithiocarbamate] yielded an MMC of 0.312 mg/mL.

Same assay, conditions: Escherichia coli, ATCC25922; E. coli ATCC 25922; compounds 1–8; read-out: MIC
Work on `CSC(=S)NCCc1ccc(O)cc1` [Compound 2, methyl-4-hydroxyphenylethyl dithiocarbamate] yielded an MIC of 312 µg/mL (≈ 1370 µM).

System: E. coli
Experiment: Microdilution MIC/MMC with resazurin
Assay type: cell-based, Escherichia coli
Settings: E. coli isolate; compounds 1–8
Protocol: as §1, §2, §3, §4, §5
In the case of `CSC(=S)NCCc1ccc(O)cc1` [Compound 2, methyl-4-hydroxyphenylethyl dithiocarbamate], the MMC is reported as 0.312 mg/mL.

Same assay, conditions: Escherichia coli; E. coli isolate; compounds 1–8; read-out: MIC
Work on `CSC(=S)NCCc1ccc(O)cc1` [Compound 2, methyl-4-hydroxyphenylethyl dithiocarbamate] yielded an MIC of 312 µg/mL (≈ 1370 µM).

System: P. mirabilis
Experiment: Microdilution MIC/MMC with resazurin
Assay type: cell-based, Proteus mirabilis
Settings: P. mirabilis; compounds 1–8
Protocol: as §1, §2, §3, §4, §5
With `CSC(=S)NCCc1ccc(O)cc1` [Compound 2, methyl-4-hydroxyphenylethyl dithiocarbamate] the MMC was 0.312 mg/mL.

Same assay, conditions: Proteus mirabilis; P. mirabilis; compounds 1–8; read-out: MIC
Compound `CSC(=S)NCCc1ccc(O)cc1` [Compound 2, methyl-4-hydroxyphenylethyl dithiocarbamate] has an MIC of 156 µg/mL (≈ 686 µM).

System: S. enterica
Experiment: Microdilution MIC/MMC with resazurin
Assay type: cell-based, Salmonella enterica
Settings: Salmonella enterica, compounds 1–8
Protocol: as §1, §2, §3, §4, §5
For `CSC(=S)NCCc1ccc(O)cc1` [Compound 2, methyl-4-hydroxyphenylethyl dithiocarbamate], the MIC was 625 µg/mL (≈ 2750 µM).

System: K. pneumoniae
Experiment: Microdilution MIC/MMC with resazurin
Assay type: cell-based, Klebsiella pneumoniae
Settings: K. pneumoniae; compounds 1–8
Protocol: as §1, §2, §3, §4, §5
In the case of `CSC(=S)NCCc1ccc(O)cc1` [Compound 2, methyl-4-hydroxyphenylethyl dithiocarbamate], the MMC is reported as 0.625 mg/mL.

Same assay, conditions: Klebsiella pneumoniae; K. pneumoniae; compounds 1–8; read-out: MIC
For `CSC(=S)NCCc1ccc(O)cc1` [Compound 2, methyl-4-hydroxyphenylethyl dithiocarbamate], the MIC was 625 µg/mL (≈ 2750 µM).

System: T. viride ATCC 13233
Experiment: Microdilution MIC/MMC
Assay type: cell-based, Trichoderma viride
Settings: T. viride ATCC 13233; compounds 1–8
Protocol: as §1, §2, §3, §4, §5
With `CSC(=S)NCCc1ccc(O)cc1` [Compound 2, methyl-4-hydroxyphenylethyl dithiocarbamate] the MMC was 0.312 mg/mL.

Same assay, conditions: Trichoderma viride, ATCC13233; T. viride ATCC 13233; compounds 1–8; read-out: MIC
For `CSC(=S)NCCc1ccc(O)cc1` [Compound 2, methyl-4-hydroxyphenylethyl dithiocarbamate], the MIC was 156 µg/mL (≈ 686 µM).

System: A. flavus ATCC 9170
Experiment: Microdilution MIC/MMC
Assay type: cell-based, Aspergillus flavus
Settings: A. flavus ATCC 9170; compounds 1–8
Protocol: as §1, §2, §3, §4, §5
Work on `CSC(=S)NCCc1ccc(O)cc1` [Compound 2, methyl-4-hydroxyphenylethyl dithiocarbamate] yielded an MMC of 0.625 mg/mL.

Same assay, conditions: Aspergillus flavus, ATCC9170; A. flavus ATCC 9170; compounds 1–8; read-out: MIC
Compound `CSC(=S)NCCc1ccc(O)cc1` [Compound 2, methyl-4-hydroxyphenylethyl dithiocarbamate] has an MIC of 312 µg/mL (≈ 1370 µM).

System: F. solani ATCC 11712
Experiment: Microdilution MIC/MMC
Assay type: cell-based, Fusarium solani
Settings: F. solani ATCC 11712; compounds 1–8
Protocol: as §1, §2, §3, §4, §5
In the case of `CSC(=S)NCCc1ccc(O)cc1` [Compound 2, methyl-4-hydroxyphenylethyl dithiocarbamate], the MMC is reported as 0.234 mg/mL.

Same assay, conditions: Fusarium solani, ATCC11712; F. solani ATCC 11712; compounds 1–8; read-out: MIC
With `CSC(=S)NCCc1ccc(O)cc1` [Compound 2, methyl-4-hydroxyphenylethyl dithiocarbamate] the MIC was 156 µg/mL (≈ 686 µM).

System: not listed separately
Experiment: ABTS radical scavenging assay
Settings: 25 µM; mean ± SD
Protocol: The ABTS radical cation solution was prepared following the previously described protocol. Different concentrations of the analyzed samples were prepared in DMSO. The test samples were prepared following the specified procedure: 20 µL of sample was combined with 980 µL of methanol, followed by the addition of 1000 µL of ABTS solution. Absorbance was measured at 734 nm. All measurements were performed in triplicate.
In the case of `CSC(=S)NCCc1ccc(O)cc1` [Compound 2, methyl-4-hydroxyphenylethyl dithiocarbamate], the “ABTS Scavenging Ability” value is reported as 7.6 ± 1.0%.

Same assay, conditions: 50 µM; mean ± SD
For `CSC(=S)NCCc1ccc(O)cc1` [Compound 2, methyl-4-hydroxyphenylethyl dithiocarbamate], the “ABTS Scavenging Ability” value was 13.4± 0.9%.

Same assay, conditions: 100 µM; mean ± SD
In the case of `CSC(=S)NCCc1ccc(O)cc1` [Compound 2, methyl-4-hydroxyphenylethyl dithiocarbamate], the “ABTS Scavenging Ability” value is reported as 13.4 ± 0.8%.
